Measurements as given in publication PMC8956739, “A synthetic lipopeptide targeting top-priority multidrug-resistant Gram-negative pathogens” (Nature Communications, 2022).
Values after ≈ are worked out from the molar mass of the structure shown. Values joined by “and” are separate entries in the source; they are usually repeats but may differ in a detail not shown here. Identical values can stand only once. Like-named read-outs stand apart in the source and are kept apart here. Residues, ends and D or L forms follow the SMILES beside them.

Assays:
[1] = tested on: Swiss mice, kidney; assay: Nephrotoxicity in mice (kidney histopathology); assay type: in vivo, mouse; settings: for Kidney histopathology (SQS Score): 72 mg/kg/d subcutaneously in six divided doses every 2 h, n = 3; for Kidney histopathology, mice with the SQS score: mouse, in vivo
Method in brief: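 Female Swiss mice (7-week-old, 22–28 g) received lipopeptides in saline either s.c. at 12 mg/kg ×6 every 2 h (total 72 mg/kg, n = 3) or i.p. at 20 or 25 mg/kg ×6 every 2 h (total 120 mg/kg, n = 6; 150 mg/kg, n = 3). Right kidney collected 20 h after last dose, fixed in 10% buffered formalin (pH 7.4), histology scored blinded.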

[2] = tested on: Swiss mice; assay: Acute toxicity in mice (maximum tolerated dose, IV bolus); assay type: in vivo, mouse; settings: replicates 1-4
Experimental: (§1) Lipopeptide solutions were prepared in 0.9% saline and stored at 4 °C before use. Swiss mice (female, 7-week-old, 22–28 g) were used in the study. A mouse was administered an intravenous bolus of the lipopeptide (mg/kg free base) through a lateral tail vein (≤0.1 mL). After the injection, the mouse was released back into the cage and monitored for clinical signs of toxicity from 0 to 24 h after injection as follows: every 10 min in the first 2 h, every half hour from 2 to 4 h, every hour from 4 to 12 h, and every 2 h from 12 to 24 h.

[3] = as above; assay type: in vivo, mouse; settings: mouse, in vivo, iv, single IV bolus dose, replicates 1-4; read-out: MTD, single replicate
Experimental: as §1

[4] = tested on: P. aeruginosa ATCC 27853; assay: Neutropenic mouse bloodstream infection model; assay type: in vivo; settings: single IV dose 4 mg/kg; for Log10 CFU/mL blood at 4 h, Mean / Δlog10 CFU/mL blood (mean) / Log10 CFU/mL blood at 4 h, single mouse: 4 h; for Δlog10 CFU/mL blood (mean): treated minus control, mean of replicates; for Delta Log10 CFU/mL blood at 4 h, single mouse: treated mouse minus mean of vehicle mice
Method in brief: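 Female Swiss mice made neutropenic with cyclophosphamide (150 mg/kg day −4, 100 mg/kg day −1), infected IV with 50 µL of 4 × 10^8 CFU/mL. Lipopeptide 4 mg/kg (free base) IV at 2 h post-inoculation, n = 3. Efficacy = Δlog10 CFU/mL blood versus saline at 4 h post-dose.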

[5] = tested on: A. baumannii FADDI-AB030; assay type: cell-based, Acinetobacter baumannii
Method in brief: (§2)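 Susceptibility: microdilution MIC in CaMHB.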

[6] = tested on: A. baumannii FADDI-AB034; assay type: cell-based, Acinetobacter baumannii
Method in brief: as §2

[7] = tested on: A. baumannii ATCC 19606; assay type: cell-based, Acinetobacter baumannii
Method in brief: as §2

[8] = tested on: K. pneumoniae FADDI-KP065; assay type: cell-based, Klebsiella pneumoniae
Method in brief: as §2

[9] = tested on: K. pneumoniae FADDI-KP032; assay type: cell-based, Klebsiella pneumoniae
Method in brief: as §2

[10] = tested on: P. aeruginosa FADDI-PA038; assay type: cell-based, Pseudomonas aeruginosa
Method in brief: as §2

[11] = tested on: P. aeruginosa FADDI-PA025; assay type: cell-based, Pseudomonas aeruginosa
Method in brief: as §2

[12] = tested on: P. aeruginosa ATCC 27853; assay type: cell-based, Pseudomonas aeruginosa
Method in brief: as §2

[13] = Distribution, accumulation and metabolism in mouse kidneys (ME-SALDI-MS imaging, histology); assay type: in vivo; settings: 10 μmol/kg SC; for kidney histology, SQS scores: 6 doses Day 1 and 3 doses Day 2; for level at time molar: female, Swiss, mouse, in vivo, 10 umol/kg, 6 doses Day 1 and 3 doses Day 2, 2 h after last dose, read-out: Concentration in the kidney cortex region
Experimental: At 2 h after the last dose on Day 2, mice were rapidly euthanized. The left kidney was collected, flash-frozen in liquid nitrogen, and stored at -80 C for MS imaging analysis. The right kidney was fixed in 10% formalin for histological examination (Histopathology and Organ Pathology Unit at the University of Melbourne). The level of histological damage to the kidneys was graded as previously described. […] A total of 1 μL was spotted onto electrochemically etched, porous-silicon semiconductor substrates for desorption/ionization on silicon (DIOS)[39]. […] For lipopeptide distribution in mouse kidneys, serially sectioned 8-μm frozen slices of the kidney were loaded onto DIOS substrates and coated with a thin layer of α-CHCA using a matrix sprayer (TM-Sprayer, HTX) for MSI analysis. […] Mounted tissue was scanned for imaging alignment (Epson Perfection […]) and calibrated as previously described. Resulting polymyxin maps were visualized and normalized against the total ion current (TIC) of each section using IonView software (Shimadzu). Lipopeptide accumulation in mouse kidneys was determined by simultaneous […] analysis of kidney tissue from treated animals and serial dilutions of the drug deposited on control kidney tissue. […] The signal intensities were compared to the corresponding concentration standard curve to calculate the concentration of lipopeptide present. Putative metabolites in the kidneys treated with lipopeptides were identified by […]. Control kidney sections were used to differentiate lipopeptide metabolites from endogenous metabolites and MS/MS data from lipopeptide standards were used to differentiate lipopeptide metabolites from the parent ion generated via CID processed in the acquisition software (MALDI Solutions, Shimadzu). Levels of accumulated lipopeptide metabolites were determined by normalization to the parent ion in MSI data.

SMILES | Kidney histopathology (SQS Score) [1] | Kidney histopathology, mice with the SQS score [1] | MTD, single replicate [2] | MTD [3] [mg/kg] | Log10 CFU/mL blood at 4 h, Mean [4] [Log10 CFU/mL blood] | Log10 CFU/mL blood at 4 h, single mouse ([4]; 4 mg/kg) | Delta Log10 CFU/mL blood at 4 h, single mouse ([4]; 4 mg/kg) | MIC A. baumannii FADDI-AB030 ([5]; FADDI-AB030) [µg/mL] | MIC A. baumannii FADDI-AB034 ([6]; FADDI-AB034) [µg/mL] | MIC A. baumannii ATCC 19606 ([7]; ATCC 19606) [µg/mL] | MIC K. pneumoniae FADDI-KP065 ([8]; FADDI-KP065) [µg/mL] | MIC K. pneumoniae FADDI-KP032 ([9]; FADDI-KP032) [µg/mL] | MIC P. aeruginosa FADDI-PA038 ([10]; FADDI-PA038) [µg/mL] | MIC P. aeruginosa FADDI-PA025 ([11]; FADDI-PA025) [µg/mL] | MIC P. aeruginosa ATCC 27853 ([12]; ATCC 27853) [µg/mL] | Δlog10 CFU/mL blood (mean) ([4]; 4 mg/kg) [log10 CFU/mL blood] | kidney histology, SQS scores [13] | level at time molar [13] [µM] | also measured
CCCCCC(=O)N[C@@H](CCN)C(=O)N[C@H](C(=O)N[C@@H](CN)C(=O)N[C@H]1CCNC(=O)[C@H]([C@@H](C)O)NC(=O)[C@H](CCN)NC(=O)[C@H](CCN)NC(=O)[C@H](CC)NC(=O)[C@@H](CC(C)C)NC(=O)[C@H](CCN)NC1=O)[C@@H](C)O [Lipopeptide F342] (HELM PEPTIDE1{[CCCCCC(=O)[*:2]].[Dab].T.[NC[C@H](N[*:1])C(=O)[*:2]].[Dab].[Dab].[dL].[Abu].[Dab].[Dab].T}$PEPTIDE1,PEPTIDE1,5:R3-11:R2$$$V2.0) | 0 (SQS 0 = no significant change (overall score, <1)) | 3/3 | 18.4 mg/kg | 20 | 7.44 | 7.29 Log10 CFU/mL blood and 7.60 Log10 CFU/mL blood | 0.0179 Log10 CFU/mL blood and 0.33 Log10 CFU/mL blood | 1 (≈ 0.921 µM) | 1 (≈ 0.921 µM) | 2 (≈ 1.84 µM) | 0.5 (≈ 0.461 µM) | 0.25 (≈ 0.23 µM) | 1 (≈ 0.921 µM) | 2 (≈ 1.84 µM) | 0.5 (≈ 0.461 µM) | – | – | – | Δlog10 CFU/mL blood (mean) [4]: 0.17 log10 CFU/mL blood; MIC, No Survanta ([12]; ATCC 27853): 1 µg/mL (≈ 0.921 µM)
CC[C@@H]1NC(=O)[C@@H](CC(C)C)NC(=O)[C@H](CCN)NC(=O)[C@@H](NC(=O)[C@H](CN)NC(=O)[C@@H](NC(=O)[C@H](CCN)NC(=O)c2ccccc2)[C@@H](C)O)CCNC(=O)[C@H]([C@@H](C)O)NC(=O)[C@H](CCN)NC(=O)[C@H](CCN)NC1=O [Lipopeptide F379] (HELM PEPTIDE1{[O=C(c1ccccc1)[*:2]].[Dab].T.[NC[C@H](N[*:1])C(=O)[*:2]].[Dab].[Dab].[dL].[Abu].[Dab].[Dab].T}$PEPTIDE1,PEPTIDE1,5:R3-11:R2$$$V2.0) | – | – | 23 mg/kg and 21.3 mg/kg and 16 mg/kg | 26 | 5.27 | 5.36 Log10 CFU/mL blood and 5.17 Log10 CFU/mL blood | -2.58 Log10 CFU/mL blood and -2.77 Log10 CFU/mL blood | – | – | – | – | – | – | – | – | −2.67 | – | – | MIC A. baumannii FADDI-AB030 ([5]; carbapenem-resistant isolate): 2 µg/mL (≈ 1.83 µM); MIC A. baumannii FADDI-AB034 ([6]; carbapenem-resistant isolate): 8 µg/mL (≈ 7.33 µM); MIC A. baumannii ATCC 19606 [7]: 8 µg/mL (≈ 7.33 µM); MIC K. pneumoniae FADDI-KP065 ([8]; carbapenem-resistant isolate): 2 µg/mL (≈ 1.83 µM); MIC K. pneumoniae FADDI-KP032 ([9]; carbapenem-resistant isolate): 2 µg/mL (≈ 1.83 µM); MIC P. aeruginosa FADDI-PA038 ([10]; carbapenem-resistant isolate): 4 µg/mL (≈ 3.67 µM); MIC P. aeruginosa FADDI-PA025 ([11]; MDR clinical isolate): >32 µg/mL; MIC P. aeruginosa ATCC 27853 [12]: 1 µg/mL (≈ 0.916 µM)
CC[C@@H]1NC(=O)[C@@H](CC(C)C)NC(=O)[C@H](CCN)NC(=O)[C@@H](NC(=O)[C@H](CN)NC(=O)[C@@H](NC(=O)[C@H](CCN)NC(=O)c2ccc(F)cc2Cl)[C@@H](C)O)CCNC(=O)[C@H]([C@@H](C)O)NC(=O)[C@H](CCN)NC(=O)[C@H](CCN)NC1=O [Lipopeptide F449] (HELM PEPTIDE1{[O=C(c1ccc(F)cc1Cl)[*:2]].[Dab].T.[NC[C@H](N[*:1])C(=O)[*:2]].[Dab].[Dab].[dL].[Abu].[Dab].[Dab].T}$PEPTIDE1,PEPTIDE1,5:R3-11:R2$$$V2.0) | 0 (SQS 0 = no significant change (overall score, <1)) | 3/3 | – | – | 5.26 | 5.17 Log10 CFU/mL blood and 5.18 Log10 CFU/mL blood and 5.44 Log10 CFU/mL blood | -2.41 Log10 CFU/mL blood and -2.40 Log10 CFU/mL blood and -2.14 Log10 CFU/mL blood | 1 (≈ 0.874 µM) | 1 (≈ 0.874 µM) | 4 (≈ 3.5 µM) | 0.25 (≈ 0.219 µM) | 0.25 (≈ 0.219 µM) | 1 (≈ 0.874 µM) | 2 (≈ 1.75 µM) | 0.5 (≈ 0.437 µM) | −2.32 | – | – | –
CC[C@H](C)CCCCC(=O)N[C@@H](CCN)C(=O)N[C@H](C(=O)N[C@@H](CCN)C(=O)N[C@H]1CCNC(=O)[C@H]([C@@H](C)O)NC(=O)[C@H](CCN)NC(=O)[C@H](CCN)NC(=O)[C@H](CC(C)C)NC(=O)[C@@H](CC(C)C)NC(=O)[C@H](CCN)NC1=O)[C@@H](C)O [colistin A] (HELM PEPTIDE1{[CC[C@H](C)CCCCC(=O)[*:2]].[Dab].T.[Dab].[Dab].[Dab].[dL].L.[Dab].[Dab].T}$PEPTIDE1,PEPTIDE1,5:R3-11:R2$$$V2.0) | – | – | – | – | – | – | – | – | – | – | – | – | – | – | – | – | +5 (SQS + 5 = severe damage (overall score, >60)) | 86.7 | –
CC[C@H](C)CCCCC(=O)N[C@@H](CCN)C(=O)N[C@H](C(=O)N[C@@H](CCN)C(=O)N[C@H]1CCNC(=O)[C@H]([C@@H](C)O)NC(=O)[C@H](CCN)NC(=O)[C@H](CCN)NC(=O)[C@H](CC(C)C)NC(=O)[C@@H](Cc2ccccc2)NC(=O)[C@H](CCN)NC1=O)[C@@H](C)O [polymyxin B1] (HELM PEPTIDE1{[CC[C@H](C)CCCCC(=O)[*:2]].[Dab].T.[Dab].[Dab].[Dab].[dF].L.[Dab].[Dab].T}$PEPTIDE1,PEPTIDE1,5:R3-11:R2$$$V2.0) | – | – | – | – | – | – | – | – | – | – | – | – | – | – | – | – | +5 (SQS + 5 = severe damage (overall score, >60)) | 38.2 | –
